In US20190388320A1, “METHOD OF STRENGTHENING HAIR” (Conopco, Inc. d/b/a UNILEVER, priority 2017, published 2019):

Experiment: Denaturation temperature Td of treated hair fibres by DSC
Details: soaked for 30 minutes in 2% aqueous solution; for Average Td (n = 3): denaturation temperature by DSC, hair switches washed, left to dry; for Change in Td of the treated fibres: in words, relative to Control (water)
Experimental: Virgin dark brown European hair switches of length 25 cm and weight 2 gms, were treated as follows: • Control: After initial washing, soaked for 30 minutes in water • Example 1: After initial washing, soaked for 30 minutes in a 2% aqueous solution of N-α-acetyl-L-lysine • Example A: After initial washing, soaked for 30 minutes in a 2% aqueous solution of L-lysine • Example B: After initial washing, soaked for 30 minutes in a 2% aqueous solution of N-α-acetyl-L-arginine
At the end of the soaking period the switches were left to dry and clippings from a few fibres were used to measure denaturation temperature Td using DSC.

SMILES | Average Td (n = 3) | Change in Td of the treated fibres
CC(=O)N[C@@H](CCCCN)C(=O)O [Example 1, N-α-acetyl-L-lysine] | 153.4 | substantial and significant increase in Td
NCCCC[C@H](N)C(=O)O [Example A, L-lysine] | 148.1 | decrease Td
CC(=O)N[C@@H](CCCNC(=N)N)C(=O)O [Example B, N-α-acetyl-L-arginine] | 148.2 | decrease Td
